Test results: article PMC12741935 (Alzheimer's & Dementia, 2025)

Assay: In vivo PK in CD-1 mice, plasma and brain by LC-MS/MS
Details: for Mean concentration in brain: ± SD, n=3; for AUC(0-inf): AUCInf
Procedure: Initial in vivo PK studies to confirm oral bioavailability and brain exposure were conducted at Pharmaron (Beijing, China) in non‐fasted male CD‐1 mice (6–8 weeks of age; sourced from Vital River). […] The dose volume was 10 mL/kg.
Next, we evaluated brain and plasma PK of 10 mg/kg (1 hour pre, IP, n = 3). Experiments then were conducted to confirm and extend initial PK data and evaluate brain and plasma levels at doses of 1, 10, and 100 mg/kg after oral administration at 1, 3, and 8 hours post dose (n = 3 per dose per timepoint).
Serial blood was collected via the dorsal metatarsal vein into ethylenediaminetetraacetic acid‐K2 coated tubes and centrifuged at 4°C x 4000 g for 5 minutes to obtain plasma that was aliquoted and stored at −80°C until analysis. For terminal studies, blood was collected via cardiac puncture under isoflurane anesthesia. Whole brain was homogenized at a ratio of 1:3 with PBS (W:V, 1:3).
For sample analysis liquid chromatography tandem mass spectrometry (LC‐MS/MS) was conducted using an AB Sciex Triple Quad 5500 LC/MS/MS instrument. Briefly, the desired serial concentrations of working solutions were achieved by diluting stock solution of analyte with 50% acetonitrile in water solution. Ten µL of working solutions (0.5, 1, 2, 5, 10, 50, 100, 500, and 1000 ng/mL) were added to 10 µL of the blank CD1 mouse plasma/brain homogenate to achieve calibration standards of 0.5 to 1000 ng/mL (0.5, 1, 2, 5, 10, 50, 100, 500, and 1000 ng/mL) in a total volume of 20 µL. Five quality control (QC) samples at 1 ng/mL, 2 ng/mL, 5 ng/mL, 50 ng/mL, and 800 ng/mL for plasma/brain homogenate were prepared independently of those used for the calibration curves. These QC samples were prepared on the day of analysis in the same way as calibration standards. Twenty µL standards, 20 µL QC samples, and 20 µL unknown samples (10 µL plasma/brain homogenate with 10 µL blank solution) were added to 200 µL of acetonitrile containing internal standard (IS) mixture for precipitating protein, respectively. The samples were vortexed for 30 seconds followed by centrifugation at 4°C x 2600 g for 15 minutes. The supernatant was diluted at a ratio of 1:2 with H2O (V/V, 1:2), 5 µL of diluted supernatant was injected into the LC‐MS/MS system for quantitative analysis. The lower limit of quantification (LLOQ) was 0.5 ng/mL for plasma and 1 ng/mL for brain. PK parameters were estimated by non‐compartmental model analysis using WinNonlin 8.3.

[1] = male, CD-1, mouse, brain, oral, 10 mg/kg
[2] = male, CD-1, mouse, brain, oral, 100 mg/kg
[3] = male, CD-1, mouse, brain, po, 10 mg/kg, 10 mg/kg PO
[4] = male, CD-1, mouse, brain, po, 100 mg/kg, 100 mg/kg PO
[5] = male, CD-1, mouse, plasma, ip, 10 mg/kg, 10 mg/kg IP, sampling 0.5, 1, 3, 5 h
[6] = male, CD-1, mouse, plasma, po, 1 mg/kg, 1 mg/kg PO
[7] = male, CD-1, mouse, plasma, po, 10 mg/kg, 10 mg/kg PO, sampling 0.5, 1, 3, 5 h
[8] = male, CD-1, mouse, plasma, po, 10 mg/kg, 10 mg/kg PO, sampling 1, 3, 8 h
[9] = male, CD-1, mouse, plasma, po, 100 mg/kg, 100 mg/kg PO
[10] = plasma, 10 mg/kg IP, sampling 0.5, 1, 3, 5 h
[11] = plasma, 10 mg/kg PO, sampling 0.5, 1, 3, 5 h
[12] = plasma, 10 mg/kg PO, sampling 1, 3, 8 h

CC(C)NC(=O)N1CC[C@H](NC2=Nc3cc(F)ccc3N(CC(F)F)c3ccc(Cl)cc32)C1 [NVS‐PAK1‐1, (S)‐3‐([2‐chloro‐5‐(2,2‐difluoroethyl)‐8‐fluoro‐5H‐dibenzo[b,e][1,4]diazepin‐11‐yl]amino)‐N‐isopropylpyrrolidine‐1‐carboxamide]
Mean concentration in brain (1 mg/kg PO, 1 h post dose): BLOQ
Mean concentration in brain (1 mg/kg PO, 3 h post dose): BLOQ
Mean concentration in brain (1 mg/kg PO, 8 h post dose): BLOQ
concentration in brain (1 mg/kg PO, at 1, 3 and 8 hours post dose): < 1 ng/mL
Mean concentration in brain (10 mg/kg PO, 8 h post dose): BLOQ
Mean concentration in brain (100 mg/kg PO, 8 h post dose): detectable
AUC_%Extrap_obs (brain, 10 mg/kg PO): 15.3%
AUClast/D (brain, 10 mg/kg PO): 5.74 h·ng/mL per mg/kg
AUC_%Extrap_obs (brain, 100 mg/kg PO): 1.34%
AUClast/D (brain, 100 mg/kg PO): 13.8 h·ng/mL per mg/kg
concentration at 1 h (male, CD-1, mouse, brain, intraperitoneal, 10 mg/kg): 112 ± 14 ng/g
concentration at 1 h [1]: 33.2 ± 13 ng/g
concentration at 3 h [1]: 7.62 ± 1.16 ng/g
concentration at 1 h [2]: 759 ± 379 ng/g
concentration at 3 h [2]: 61.6 ± 3.5 ng/g
concentration at 8 h [2]: 14.3 ± 5.4 ng/g
AUC(0-inf) [3]: 67.8 ng·h/mL
AUC(0-t) (male, CD-1, mouse, brain, po, 10 mg/kg, AUClast, 10 mg/kg PO): 57.4 ng·h/mL
Cmax [3]: 33.2 ng/mL
MRT inf (male, CD-1, mouse, brain, po, 10 mg/kg, MRTInf_obs, 10 mg/kg PO): 1.74 h
half-life (male, CD-1, mouse, brain, po, 10 mg/kg, T1/2, brain, 10 mg/kg PO): 0.942 h
Tmax [3]: 1 h
AUC(0-inf) [4]: 1400 ng·h/mL
AUC(0-t) (male, CD-1, mouse, brain, po, 100 mg/kg, AUClast, 100 mg/kg PO): 1380 ng·h/mL
Cmax [4]: 759 ng/mL
half-life (male, CD-1, mouse, brain, po, 100 mg/kg, T1/2, brain, 100 mg/kg PO): 1.23 h
Tmax [4]: 1 h
Kp at 1 h (male, CD-1, mouse, brain/plasma, ip, 10 mg/kg): 0.25
Kp (male, CD-1, mouse, brain/plasma, po, 10 mg/kg): 0.21
Kp (male, CD-1, mouse, brain/plasma, po, 100 mg/kg): 0.302
AUC(0-t) (male, CD-1, mouse, in vivo, po, 1 mg/kg): 27.2 ng·h/mL
MRT inf (male, CD-1, mouse, in vivo, po, 100 mg/kg): 1.56 h
concentration at 1 h (male, CD-1, mouse, plasma, intraperitoneal, 10 mg/kg): 448 ± 65 ng/mL
AUC(0-inf) [5]: 1170 ng·h/mL
AUC(0-t) (male, CD-1, mouse, plasma, ip, 10 mg/kg, AUClast, 10 mg/kg IP, sampling 0.5, 1, 3, 5 h): 1150 ng·h/mL
Cmax [5]: 878 ng/mL
MRT inf (male, CD-1, mouse, plasma, ip, 10 mg/kg, MRTInf_obs, 10 mg/kg IP, sampling 0.5, 1, 3, 5 h): 1.1 h
half-life (male, CD-1, mouse, plasma, ip, 10 mg/kg, T1/2, plasma, 10 mg/kg IP, sampling 0.5, 1, 3, 5 h): 0.814 h
Tmax [5]: 0.5 h
AUC(0-inf) [6]: 31.6 ng·h/mL
Cmax [6]: 8.1 ng/mL
MRT inf (male, CD-1, mouse, plasma, po, 1 mg/kg, MRTInf_obs, 1 mg/kg PO): 3.92 h
half-life (male, CD-1, mouse, plasma, po, 1 mg/kg, T1/2, plasma, 1 mg/kg PO): 2.62 h
Tmax [6]: 1 h
AUC(0-inf) [7]: 252 ng·h/mL
AUC(0-inf) [8]: 280 ng·h/mL
AUC(0-t) (male, CD-1, mouse, plasma, po, 10 mg/kg, AUClast, 10 mg/kg PO, sampling 0.5, 1, 3, 5 h): 223 ng·h/mL
AUC(0-t) (male, CD-1, mouse, plasma, po, 10 mg/kg, AUClast, 10 mg/kg PO, sampling 1, 3, 8 h): 274 ng·h/mL
Cmax [7]: 130 ng/mL
Cmax [8]: 112 ng/mL
MRT inf (male, CD-1, mouse, plasma, po, 10 mg/kg, MRTInf_obs, 10 mg/kg PO, sampling 0.5, 1, 3, 5 h): 2.19 h
MRT inf (male, CD-1, mouse, plasma, po, 10 mg/kg, MRTInf_obs, 10 mg/kg PO, sampling 1, 3, 8 h): 2.1 h
half-life (male, CD-1, mouse, plasma, po, 10 mg/kg, T1/2, plasma, 10 mg/kg PO, sampling 0.5, 1, 3, 5 h): 1.56 h
half-life (male, CD-1, mouse, plasma, po, 10 mg/kg, T1/2, plasma, 10 mg/kg PO, sampling 1, 3, 8 h): 1.4 h
Tmax [7]: 0.5 h
Tmax [8]: 1 h
AUC(0-inf) [9]: 4720 ng·h/mL
AUC(0-t) (male, CD-1, mouse, plasma, po, 100 mg/kg, AUClast, 100 mg/kg PO): 4570 ng·h/mL
Cmax [9]: 2330 ng/mL
MRT inf (male, CD-1, mouse, plasma, po, 100 mg/kg, MRTInf_obs, 100 mg/kg PO): 1.91 h
half-life (male, CD-1, mouse, plasma, po, 100 mg/kg, T1/2, plasma, 100 mg/kg PO): 1.5 h
Tmax [9]: 1 h
AUC_%Extrap_obs (plasma, 1 mg/kg PO): 14.0%
AUClast/D (plasma, 1 mg/kg PO): 27.2 h·ng/mL per mg/kg
AUC_%Extrap_obs [10]: 1.62%
AUClast/D [10]: 115 h·ng/mL per mg/kg
AUC_%Extrap_obs [11]: 11.3%
AUClast/D [11]: 22.3 h·ng/mL per mg/kg
AUC_%Extrap_obs [12]: 2.29%
AUClast/D [12]: 27.4 h·ng/mL per mg/kg
AUC_%Extrap_obs (plasma, 100 mg/kg PO): 3.08%
AUClast/D (plasma, 100 mg/kg PO): 45.7 h·ng/mL per mg/kg
